Measurements as given in paper PMC9882606, “Rationally designed inhibitors of the Musashi protein-RNA interaction by hotspot mimicry” (Research Square, 2023).

Tests used:
MSI1 RRM1 [1] = biological target: T1, MSI1 RRM1 (Homo sapiens, UniProt O43347); assay: Fluorescence polarization (FP) competition assay with fluorescein-labeled RNA; format: binding; settings: for inhibition in FP competition assay: MSI1 RRM1, result in words
T1 sequence (O43347 20-110 limits assumed): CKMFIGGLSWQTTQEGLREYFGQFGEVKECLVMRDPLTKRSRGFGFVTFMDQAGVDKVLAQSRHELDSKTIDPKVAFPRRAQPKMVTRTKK
Source text: Figure 1: The hotspot mimicry approach. […] (A) The structure of the MSI1 / RNA complex. The RNA (sticks) wraps around the protein (spheres). Two adjacent bases, A106 and G107 (magenta), are buried in a shallow pocket on the protein surface. (B) An interaction map is generated from the RNA in the complex, by collecting deeply buried bases (magenta) and atoms involved in intermolecular hydrogen bonds (acceptors shown in yellow, donors in green). […] Positive values indicate diminished binding when a given base is replaced with an abasic site, showing that A106 and G107 contribute more than the other nearby bases to the binding affinity of this interaction. (E) The hotspot pharmacophore serves as a template for ligand-based screening, searching for compounds that would mimic the three-dimensional features of the pharmacophore. The screen led to the identification of compound R12, which mimics the geometry of the rings and provides three of the four desired hydrogen bonding groups. (F) R12 competes with fluorescein-labeled RNA for MSI1 binding, as observed through a fluorescence polarization assay. […] (G) Superposition of the hotspot pharmacophore back onto the protein structure illustrates the interactions that should be captured by an ideal ligand: stacking against three aromatic sidechains, and four intermolecular hydrogen bonds.
We applied our “hotspot mimicry” approach to the structure of Musashi-1 RRM1 bound to cognate RNA [54], and found a single hotspot pharmacophore derived from an adjacent pair of buried bases, Adenine106 and Guanine107 (Figure 1a). […] This pharmacophore captures both the aromatic stacking and the hydrogen bonding of the RNA hotspot through its inclusion of ring moieties and donor/acceptor positions, respectively (Figure 1c). To test whether these two particular bases indeed serve as a hotspot of the MSI1 RRM1 / RNA interaction, we used a fluorescence polarization (FP) competition assay (see Supporting Methods) to measure the binding affinity of RNA variants that maintained the backbone but lacked individual bases. […] In contrast, introduction of an abasic site at other nearby positions affected binding much less. Confirmation that A106 and G107 serve as hotspot bases of this interaction thus provided experimental evidence supporting the pharmacophore selection from our computational approach.

[2] = Solubility as noted during FP testing; format: physicochemical; settings: result in words
Source text: We then used this pharmacophore as a template for virtual screening. The 12 top-scoring hits identified from the resulting screen could each be classified into one of three diverse chemotypes (Figure S1). While none of these scaffolds bear any obvious resemblance in chemical structure to a nucleobase pair, the overlap in three-dimensional shape and hydrogen bonding potential between the hotspot pharmacophore and the modeled conformation of each compound is immediately evident. Despite this strong similarity, none of the 12 hit compounds recapitulated all four of the polar groups included in the hotspot pharmacophore, and only three hit compounds matched to three of the polar groups: R12 (Figure 1e), its close analog R4, and R7 (Figure S2).
(§1) Out of concern that R12–7’s activity may be associated with compound aggregation, we elected to continue with optimization of R12–8 (Figure 2b).

MSI2 [3] = assay: Immunoblot of cellular MSI2 protein levels in PC9 cells; format: cell-based, human; settings: PC9, 20 μM compound for 1, 3, 6, 24, or 48 hours
Source text: To explore the effect of these MSI2 inhibitors in a cancer-relevant cellular context, we selected two MSI2-dependent cancer cell lines: non-small cell lung cancer cell line PC9 and leukemia cell line K562 [73, 98–101]. Upon treatment of PC9 cells with Ro, R12–8–44–3, or negative control R12-neg, we found at multiple time points that cellular MSI2 protein levels were unchanged (Figure 6a). To confirm target engagement, we therefore adapted the cellular thermal shift assay (CETSA). To determine experimental conditions, we first harvested cells and incubated at increasing temperatures; we then removed aggregated protein by centrifugation and used Western blotting to probe the amount of MSI2 remaining in the soluble fraction (Figure 6b, Figure S9). Having established 49 °C as the midpoint of the transition under these (non-equilibrium) conditions, we then treated cells with our candidate MSI2 inhibitor for 3 h, and heated to 49 °C.
Figure 6: Direct cellular engagement of MSI2 interaction by R12–44–3. (A) Immunoblot from PC9 cells treated with Ro (positive control), R12-neg (negative control), or R12–8–44–3. Cells were treated with 20 μM compound for 1, 3, 6, 24, or 48 hours. MSI2 protein abundance was then quantified and normalized to untreated sample. One representative image is shown; quantification is presented as the average ± S.E.M. from 3 independent replicates. (B) Thermal-induced aggregation of cellular MSI2 in the PC9 cell line. Cells were briefly incubated at temperatures between 40 °C to 67 °C, then centrifuged and the amount of MSI2 remaining in the soluble fraction was quantified by Western blotting. […] One representative image is shown; quantification is presented as the average ± S.E.M. from 3 independent replicates, normalized first to beta-actin and then to DMSO control. […] One representative image is shown; quantification is presented as the average ± S.E.M. from 3 independent replicates, normalized first to beta-actin and then to DMSO control. […]

PC9 cells [4] = assay: CellTiter-Blue cell viability, PC9; format: cell-based, human; settings: PC9, 3 days, dose-response
Procedure: (§2) Figure 7: Cellular characterization of MSI2 inhibition by R12–8–44–3. (A) Quantification of mRNA immunoprecipitation (RIP) results. Cells were treated with 10 μM of the indicated compounds for 8 hours. After immunoprecipitation with anti-MSI2, mRNA targets were quantified. The amount of each target mRNA in the pulldown was calculated relative to the input, and results from all targets were normalized to PTP4A1. Treating cells with R12–8–44–3 disrupted the interaction with all four cognate mRNAs (PTP4A, SMAD3, EGFR, and MSI2). Data are presented as the average ± S.E.M. from at least 3 independent replicates. […] Cells were treated with indicated compounds at two concentrations (5 μM and 20 μM) for 48 hours, then protein levels of relevant MSI2 targets were determined (EGFR, SMAD3, and MSI2). One representative image is shown; quantification is presented as the average ± S.E.M. from at least 3 independent replicates, normalized first to beta-actin and then to DMSO-treated cells. (C) Cell viability dose-response quantified by CellTiter-Blue after 3 days (left) and cell proliferation with 10μM of compounds quantified by clonogenic assay after 7 days (right). […] (D) Cell viability quantified by clonogenic assay of PC9 cell line after 7-day treatment with 2 nM osimertinib (osi alone), osimertinib with 10 μM R12–8–44–3, or osimertinib with 10 μM R12-neg. […]

PC9 cells [5] = assay: Clonogenic assay, PC9; format: cell-based, human; settings: PC9, 10 μM, 7 days
Procedure: as §2

MSI1/MSI2 = test system: MSI1/MSI2; design: method as in PMID 31217428, PMID 36167829; settings: in vitro; cited from earlier work
leukemia/lymphoma models = test system: leukemia/lymphoma models; design: method as in PMID 31217428, PMID 36167829; settings: in vivo leukemia/lymphoma models; cited from earlier work
MSI2 [6] = biological target: MSI2 (Homo sapiens, UniProt Q96DH6); assay: MS2-TRAP aptamer pull-down reporter assay in HEK293 cells; format: cell-based; design: HEK293 cells (with a high baseline MSI2 expression); endogenous in cells; host or cells: HEK293; settings: HEK293, 24 h treatment; for total amount of MSI2 in cells: input prior to IP; for amount of Luc mRNA in cells (qPCR): prior to IP
MSI2 (Homo sapiens, UniProt Q96DH6), sequence (Q96DH6 whole entry): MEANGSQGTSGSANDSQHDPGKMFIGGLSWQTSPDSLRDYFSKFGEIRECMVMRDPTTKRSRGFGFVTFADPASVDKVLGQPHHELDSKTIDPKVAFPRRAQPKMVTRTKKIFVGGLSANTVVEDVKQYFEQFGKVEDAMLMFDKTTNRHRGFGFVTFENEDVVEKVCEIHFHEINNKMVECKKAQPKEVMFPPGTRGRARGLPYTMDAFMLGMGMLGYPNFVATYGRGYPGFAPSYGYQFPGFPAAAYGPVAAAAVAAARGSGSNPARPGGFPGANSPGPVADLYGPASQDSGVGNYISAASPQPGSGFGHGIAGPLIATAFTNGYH
Source text: Figure 5: Characterization of R12–8–44–3 in a reporter cell line. […] As a positive control, Ro 08–2750 (aka “Ro”) is also included in these studies. (B) Schematic of reporter assay. HEK293 cells are transfected with a plasmid encoding an arbitrary gene (Luc) with UAG repeats (to recruit MSI2) and MS2 repeats (for pulldown) appended to its 3’ UTR. The same vector also includes FLAG-labeled MS2-BP. Upon anti-FLAG immunoprecipitation (IP), the FLAG-labeled MS2-BP allows purification of the Luc mRNA along with any associated factors. (C) Prior to IP, cells express Luc mRNA to a similar extent irrespective of whether they were treated with DMSO, R12-neg, R12–8–44–3, or Ro. (D) Prior to IP (“input”), MSI2 is detected in all samples to a similar extent (as is KU-86 loading control). After pulldown of Luc mRNA, MSI2 is found associated with the mRNA in cells treated with DMSO or R12-neg, but not in cells that had been treated with R12–8–44–3 or Ro. Representative image is shown; quantification is plotted as the average of 2 independent experiments ± S.E.M. Statistical analysis was performed using unpaired two tailed t-test, with * indicating p<0.05. Uncropped Western blots from this experiment are provided as Figure S8.
To determine whether inhibition of MSI1/MSI2 by R12–8–44–3 would apply in a cellular context, we adapted an aptamer pull-down reporter assay that we previously used to validate candidate Musashi target genes. Briefly, our approach is a variation of the MS2-TRAP (MS2-tagged RNA affinity purification) method, which uses bacteriophage protein MS2-BP to extract from cells any factors that associate with RNAs containing a specific stem-loop structure (MS2) from the phage genome. Here, we designed an mRNA construct that would include a series of MS2 hairpins and also a MSI2 recognition sequence. We transfected this construct into cells that also express FLAG-tagged MS2-BP (a protein unrelated to MSI2). By affinity purification using the FLAG tag, proteins bound to the designed mRNA can be extracted from cells.
To test for inhibition of MSI2 in cells, we transfected HEK293 cells (with a high baseline MSI2 expression), with the pMS2-LUC-3’UTR from our previous studies. This vector appends onto the 3’UTR of an arbitrary gene (in this case luciferase) two key elements: UAG-motifs comprising a MSI2 recognition sequence, and a series of five MS2 hairpins. The same vector also encodes the FLAG-MS2-BP fusion needed for affinity purification (Figure 5b). Cells were then treated with each compound of interest for 24 h, and then the cells were subsequently harvested and used for anti-FLAG immunoprecipitation. […] Using qPCR we evaluated the amount of Luc mRNA in cells treated with R12–8–44–3, R12-neg, or Ro, and found this to be unchanged (Figure 5c).

MSI1 RRM1 [7] = biological target: T1, MSI1 RRM1; assay: Differential Scanning Fluorimetry (DSF); format: binding; settings: increasing compound dose
Source text: as §1
To further characterize R12–8–44–3, we applied differential scanning fluorimetry (DSF) as an orthogonal secondary assay. […] While this could be a sign of apparent inhibition occurring through aggregation, there are also legitimate inhibitors that reduce their target protein’s melting temperature. An alternate explanation could simply be that MSI1’s folding landscape is not simply two-state, and that a partially-folded intermediate stabilized by R12–8–44–3 affects the unfolding transition.

Row | SMILES | inhibition in FP competition assay (MSI1 RRM1 [1]) | solubility [2] | cellular MSI2 protein levels (MSI2 [3]) | MSI2 purified with reporter mRNA (anti-FLAG pulldown) (MSI2 [6]) | total amount of MSI2 in cells (MSI2 [6]) | amount of Luc mRNA in cells (qPCR) (MSI2 [6]) | change of the protein's melting temperature (MSI1 RRM1 [7]) | also measured
1 | Nc1nc(COC(=O)c2cncc(Br)c2)nc2ccccc12 [R12] | showed inhibition | low solubility |  |  |  |  |  | 
2 | Cc1cc2nc3c(=O)[nH]c(=O)nc-3n(C)c2cc1C=O [Ro 08–2750, reference compound] |  |  | unchanged | much less MSI2 is purified | unaffected | unchanged |  | cell viability (CellTiter-Blue) (PC9 cells [4]): dramatically diminishes cell viability; cell proliferation (clonogenic assay) (PC9 cells [5]): dramatically diminishes cell viability; inhibition of RNA-binding activity of MSI1/MSI2 (MSI1/MSI2): inhibit the RNA-binding activity of MSI1/MSI2 in vitro; disease burden (leukemia/lymphoma models): reduce disease burden
3 | Cc1sc2nc(COC(=O)c3cccc(Cl)c3Cl)nc(N)c2c1C [R12-neg] | inactive |  | unchanged | does not disrupt MSI2 pulldown | unaffected | unchanged |  | 
4 | COc1ccc(C(=O)OCc2nc(N)c3c(C)c(C)sc3n2)c(N)c1 [R12–8–44] |  |  |  |  |  |  | monotonically-increasing melting temperature with increasing ligand concentration | improvement in potency over parent compound (MSI1 RRM1 [1]; FP assay, MSI1 RRM1): more than ten-fold improvement in potency
5 | COc1ccc(C(=O)OCc2nc(N)c3ccccc3n2)c(N)c1 [R12–8] | superior inhibition and solubility than R12 | superior inhibition and solubility than R12 |  |  |  |  | monotonically increasing stabilization with increasing dose | 
